Measurements: article PMC10531071, “Furmonertinib, a Third-Generation EGFR Tyrosine Kinase Inhibitor, Overcomes Multidrug Resistance through Inhibiting ABCB1 and ABCG2 in Cancer Cells” (International Journal of Molecular Sciences, 2023)

What was measured:
ABCG2 (BCRP; MXR; ABCP) = molecular target: T1, ABCG2 (BCRP; MXR; ABCP) (Homo sapiens, UniProt Q9UNQ0); assay: vanadate-sensitive ATPase stimulation in High-Five insect cell membrane vesicles; also PhA efflux inhibition in R482-HEK293 cells (IC50 […]); format: biochemical
T1 sequence (Q9UNQ0 1-655): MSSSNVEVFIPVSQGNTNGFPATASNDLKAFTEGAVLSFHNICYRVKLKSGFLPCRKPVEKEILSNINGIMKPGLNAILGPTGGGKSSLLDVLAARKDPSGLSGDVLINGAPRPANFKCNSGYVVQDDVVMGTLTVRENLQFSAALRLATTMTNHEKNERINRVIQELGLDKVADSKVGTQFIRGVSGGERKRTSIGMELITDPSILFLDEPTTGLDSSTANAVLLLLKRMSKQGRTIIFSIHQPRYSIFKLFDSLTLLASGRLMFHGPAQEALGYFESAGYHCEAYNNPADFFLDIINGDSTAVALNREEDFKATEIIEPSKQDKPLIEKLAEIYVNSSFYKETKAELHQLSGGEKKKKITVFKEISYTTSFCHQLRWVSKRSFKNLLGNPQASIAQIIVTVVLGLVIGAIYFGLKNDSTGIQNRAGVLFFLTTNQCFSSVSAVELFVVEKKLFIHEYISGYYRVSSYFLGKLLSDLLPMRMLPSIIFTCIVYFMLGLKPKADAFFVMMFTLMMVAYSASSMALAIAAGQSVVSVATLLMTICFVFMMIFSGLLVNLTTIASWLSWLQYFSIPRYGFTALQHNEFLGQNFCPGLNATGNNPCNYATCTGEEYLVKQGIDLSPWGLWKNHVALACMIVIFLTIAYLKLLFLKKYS

[1] = molecular target: ABCB1 (P-glycoprotein; MDR1) (Homo sapiens, UniProt P08183); assay: vanadate-sensitive ATPase stimulation in High-Five insect cell membrane vesicles; also calcein-AM efflux inhibition in MDR19-HEK293 cells (IC50 […]); format: biochemical
Chain of ABCB1 (P-glycoprotein; MDR1) (P08183 whole entry): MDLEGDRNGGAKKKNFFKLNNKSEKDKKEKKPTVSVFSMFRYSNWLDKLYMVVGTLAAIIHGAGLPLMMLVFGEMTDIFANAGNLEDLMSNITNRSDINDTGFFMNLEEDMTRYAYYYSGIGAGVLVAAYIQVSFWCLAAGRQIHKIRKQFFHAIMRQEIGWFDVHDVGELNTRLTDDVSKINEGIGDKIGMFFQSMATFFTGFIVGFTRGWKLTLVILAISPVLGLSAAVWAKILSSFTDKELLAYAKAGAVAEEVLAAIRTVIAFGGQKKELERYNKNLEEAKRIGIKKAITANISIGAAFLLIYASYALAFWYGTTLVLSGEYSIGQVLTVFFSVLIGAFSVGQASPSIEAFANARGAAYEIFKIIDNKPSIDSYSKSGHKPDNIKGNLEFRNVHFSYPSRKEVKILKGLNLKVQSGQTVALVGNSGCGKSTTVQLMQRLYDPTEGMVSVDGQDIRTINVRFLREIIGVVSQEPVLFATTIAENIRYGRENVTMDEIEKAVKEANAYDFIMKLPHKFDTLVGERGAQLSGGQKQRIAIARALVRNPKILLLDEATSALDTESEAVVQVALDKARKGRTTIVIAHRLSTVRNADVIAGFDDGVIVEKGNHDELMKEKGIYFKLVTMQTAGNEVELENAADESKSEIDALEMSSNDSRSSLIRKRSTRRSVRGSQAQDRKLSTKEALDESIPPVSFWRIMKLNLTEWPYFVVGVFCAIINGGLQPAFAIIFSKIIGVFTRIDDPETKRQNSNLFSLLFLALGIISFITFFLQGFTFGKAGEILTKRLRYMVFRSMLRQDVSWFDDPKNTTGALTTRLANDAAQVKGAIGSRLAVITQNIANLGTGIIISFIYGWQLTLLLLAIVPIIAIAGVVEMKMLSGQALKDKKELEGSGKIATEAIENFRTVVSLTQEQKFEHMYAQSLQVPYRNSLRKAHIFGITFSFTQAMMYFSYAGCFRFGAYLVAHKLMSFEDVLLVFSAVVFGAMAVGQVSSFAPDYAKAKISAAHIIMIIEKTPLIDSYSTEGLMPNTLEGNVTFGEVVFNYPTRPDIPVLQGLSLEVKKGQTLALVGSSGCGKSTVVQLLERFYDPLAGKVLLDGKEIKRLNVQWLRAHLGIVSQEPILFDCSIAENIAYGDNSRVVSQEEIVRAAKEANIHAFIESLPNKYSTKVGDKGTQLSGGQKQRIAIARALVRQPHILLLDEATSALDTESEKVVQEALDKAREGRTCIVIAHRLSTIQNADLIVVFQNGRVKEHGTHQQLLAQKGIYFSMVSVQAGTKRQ

Structure (SMILES): C=CC(=O)Nc1cc(Nc2nccc(-c3cn(C)c4ccccc34)n2)c(OCC(F)(F)F)nc1N(C)CCN(C)C [furmonertinib]
- EC50 (ABCG2 (BCRP; MXR; ABCP)): ~3 nM
- EC50 [1]: ~600 nM
